This is an account of results in patent publication US8383643B2, “Spiro compounds useful as inhibitors of stearoyl-coenzyme A delta-9 desaturase” (Merck Canada Inc., priority 2009, dated 2013).

For this assay, the target named is T1, human SCD1 (Homo sapiens, UniProt O00767).
T1 construct: made in house; host or cells: baculovirus/Sf9
T1 sequence (O00767 1-359): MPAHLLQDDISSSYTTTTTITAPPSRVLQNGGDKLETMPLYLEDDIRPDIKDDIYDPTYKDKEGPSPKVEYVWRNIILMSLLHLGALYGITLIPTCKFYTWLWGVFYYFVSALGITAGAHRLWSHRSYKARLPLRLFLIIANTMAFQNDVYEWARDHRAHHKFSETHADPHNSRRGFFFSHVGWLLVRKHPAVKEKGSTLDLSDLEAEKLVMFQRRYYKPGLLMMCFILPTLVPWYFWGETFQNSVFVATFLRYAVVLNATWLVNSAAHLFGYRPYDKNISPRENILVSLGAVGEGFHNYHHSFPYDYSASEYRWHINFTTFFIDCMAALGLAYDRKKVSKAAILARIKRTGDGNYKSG
Kind of assay: SCD enzyme activity assay, reconstituted human SCD1 desaturase system ([3H]-stearoyl-CoA conversion). It counts as biochemical. Conditions: read-out: IC50 hSCD-1. The method, then:
The potency of compounds of formula I against the stearoyl-CoA desaturase was determined by measuring the conversion of radiolabeled stearoyl-CoA to oleoyl-CoA using rat liver microsome or human SCD1 following previously published procedures with some modifications (Joshi, et al., J. Lipid Res., 18: 32-36 (1977); Talamo, et al., Anal. Biochem, 29: 300-304 (1969)). Liver microsome was prepared from male Wistar or Sprague Dawley rats on a high carbohydrate diet for 3 days (LabDiet #5803, Purina). The livers were homogenized (1:10 w/v) in a buffer containing 250 mM sucrose, 1 mM EDTA, 5 mM DTT and 50 mM Tris-HCl (pH 7.5). After a 100,000×g centrifugation for […], the liver microsome pellet was suspended in a buffer containing 100 mM sodium phosphate, 20% glycerol, 2 mM DTT, and stored at −78° C. Human SCD1 desaturase system was reconstituted using human SCD1 from a baculovirus/Sf9 expression system, cytochrome B5 and cytochrome B5 reductase. Typically, test compound in 2 μL DMSO was incubated for […] at room temperature with 180 μL of the SCD enzyme in a buffer containing 100 mM Tris-HCl (pH 7.5), ATP (5 mM), Coenzyme-A (0.1 mM), Triton X-100 (0.5 mM) and NADH (2 mM). The reaction was initiated by the addition of 20 μL of [^3H]-stearoyl-CoA (final concentration=2 μM, radioactivity concentration=1 μCi/mL). After 10 min, the reaction mixture (80 μL) was mixed with a calcium chloride/charcoal aqueous suspension (100 μL charcoal (10% w/v) plus 25 μL CaCl2 (2N). After centrifugation to precipitate the radioactive fatty acid species, tritiated water released from 9,10-[^3H]-stearoyl-CoA by the SCD enzyme was quantified on a scintillation counter.
Turning to “2-(5-(2-(4-(4-Fluorophenyl)spiro[chromene-2,4′-piperidine]-1′-yl)thiazol-5-yl)-2H-tetrazol-2-yl)acetic acid [Example 6]”, the IC50 was 1.3 nM.

As to “2-(5-(5-(4-(4-Fluorophenyl)spiro[chromene-2,4′-piperidine]-1′-yl)-1,3,4-thiadiazol-2-yl)-2H-tetrazol-2-yl)acetic acid [Example 7]”, the IC50 was 0.97 nM.

For the molecule `O=C(O)Cn1nnc(-c2cnc(N3CCC4(C=C(c5ccc(OC(F)(F)F)cc5)c5ccccc5O4)CC3)s2)n1` [Example 3, [5-(2-{-4-[4-(Trifluoromethoxy)phenyl]-1′H-spiro[chromene-2,4′-piperidin]-1′-yl}-1,3-thiazol-5-yl)-2H-tetrazol-2-yl]acetic acid], the IC50 came to 1.1 nM.

Consider “(5-{2-[4-(2,4-Dichlorophenyl)-1′H-spiro[chromene-2,4′-piperidin]-1′-yl]-1,3-thiazol-5-yl}-2H-tetrazol-2-yl)acetic acid [Example 5]”, for which the concentration for half-maximal inhibition (IC50) came to 1.1 nM. Next, “(5-{2-[4-(2-Chlorophenyl)-1′H-spiro[chromene-2,4′-piperidin]-1′-yl]-1,3-thiazol-5-yl}-2H-tetrazol-2-yl)acetic acid [Example 1]”: 0.92 nM; “(5-{5-[4-(2-Chlorophenyl)-1′H-spiro[chromene-2,4′-piperidin]-1′-yl]-1,3,4-thiadiazol-2-yl}-2H-tetrazol-2-yl)acetic acid [Example 2]”: 0.61 nM; “(5-{5-[4-(2-Chlorophenyl)-1′H-spiro[chromene-2,4′-piperidin]-1′-yl]-1,3,4-thiadiazol-2-yl}-2H-tetrazol-2-yl)acetic acid [Example 4]”: 2 nM.
